Laboratory results reported in publication PMC7602263, “Exploring the Use of Helicogenic Amino Acids for Optimising Single Chain Relaxin-3 Peptide Agonists” (Biomedicines, 2020).
Read-outs that look alike come from different tables or passages of the source. Where a SMILES comes first, the peptide text is derived from it. Bridges are numbered along the chain shown (N, C = ends). Where no end group is shown, it is not given here. [ ]: non-standard residue; d: D form. S5 = C=CCCC[C@](C)(N)C(=O)O

Legend:
RXFP3 [1] = target: T1, RXFP3 (Homo sapiens, UniProt Q9NSD7); assay: Competition binding assay with Eu-labelled R3 B1-22R on CHO-K1 cells stably expressing RXFP3; conditions: read-out: pKi [logM] (converted)
T1 construct: expressed in transfected cells; host or cells: CHO-K1
T1 sequence (Q9NSD7 1-469): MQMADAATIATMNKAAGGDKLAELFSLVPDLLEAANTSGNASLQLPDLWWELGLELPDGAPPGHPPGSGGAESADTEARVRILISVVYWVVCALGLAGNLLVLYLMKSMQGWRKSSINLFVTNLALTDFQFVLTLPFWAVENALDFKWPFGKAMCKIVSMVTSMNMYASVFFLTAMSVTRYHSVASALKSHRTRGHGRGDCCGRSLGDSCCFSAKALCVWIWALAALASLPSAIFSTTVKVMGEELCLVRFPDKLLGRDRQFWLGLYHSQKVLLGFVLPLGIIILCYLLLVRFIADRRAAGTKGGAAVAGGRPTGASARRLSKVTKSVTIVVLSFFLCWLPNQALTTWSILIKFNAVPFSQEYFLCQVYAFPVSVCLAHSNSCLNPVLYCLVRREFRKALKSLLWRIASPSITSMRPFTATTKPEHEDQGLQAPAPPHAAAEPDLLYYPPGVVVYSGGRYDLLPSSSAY
Method: Determination of binding affinity in this study was carried out as previously described. Briefly, CHO-K1 cells stably expressing RXFP3 [38] were treated with 5 nM Eu-labelled R3 B1-22R with increasing concentrations of novel analogues. Fluorescence measurement were recorded with 340 nm excitation and 614 nm emission wavelengths. Assays were conducted in triplicates and independently repeated at least three times. […] Statistical analyses were conducted using 1-way ANOVA with uncorrected Fisher’s least square difference in GraphPad Prism 8.0.
(§1) To determine their binding affinity, the ability of increasing concentration of analogues to compete with europium labelled R3 B1-22R were measured using CHO cells stably expressing RXFP3 [37]. Their potency at RXFP3 was measured by inhibition of cAMP accumulation induced by forskolin, as RXFP3 couples to an inhibitory G-protein.

RXFP3 [2] = target: T1, RXFP3; assay: cAMP activity assay: inhibition of forskolin-induced cAMP accumulation in CHO-K1 cells stably expressing RXFP3; format: cell-based; conditions: for EC50: CHO-K1 cells stably expressing RXFP3, inhibition of cAMP accumulation stimulated by 5 μM forskolin, mean ± SEM, triplicates, three independent experiments
Method: CHO-KI cells stably expressing RXFP3 were used to study the ability of the novel analogues to inhibit forskolin-induced cAMP accumulation. Assays were conducted as previously described. Briefly, 5 μM forskolin was used to stimulate the cells and increasing concentrations of the novel analogues were added to measure the dose-dependent reduction in the cAMP response via activation of the Gi/o-coupled RXFP3. Each analogue was tested in triplicates and each experiment was independently repeated three times. Data are presented as mean ± SEM and were analysed using GraphPad Prism 8.0. Statistical analyses were conducted using 1-way ANOVA and uncorrected Fisher’s least square difference.
as §1

Ki (RXFP3 [1]; SEM) [nM]	EC50 (RXFP3 [2]) [nM]	maximum cAMP accumulation inhibition (RXFP3 [2]; at the highest concentration tested, CHO-K1 cells expressing RXFP3, forskolin-stimulated (Figure 3))	EC50 (RXFP3 [2]; SEM) [nM]	Ki (RXFP3 [1]) [nM]	Compound
4790	–	–	4790	–	CC[C@H](C)[C@@H]1NC(=O)[C@H](Cc2ccccc2)NC(=O)[C@@H](NC(=O)[C@H](CCCNC(=N)N)NC(=O)CNC(=O)[C@H](CO)NC(C)=O)CSCC(=O)CSC[C@@H](C(=O)N[C@H](C(=O)N[C@H](C(=O)N[C@@H](Cc2ccccc2)C(=O)N[C@H](C(=O)N[C@@H](CO)C(=O)NCC(=O)NCC(=O)N[C@@H](CO)C(=O)N[C@@H](CCCNC(=N)N)C(=O)N[C@@H](Cc2c[nH]c3ccccc23)C(=O)O)[C@@H](C)O)[C@@H](C)CC)C(C)C)NC(=O)[C@H](CCCNC(=N)N)NC1=O [Analogue 15] (HELM PEPTIDE1{[ac].S.G.R.C.F.I.R.C.V.I.F.T.S.G.G.S.R.W}|CHEM1{[O=C(C[*:1])C[*:2]]}$PEPTIDE1,CHEM1,5:R3-1:R1|PEPTIDE1,CHEM1,9:R3-1:R2$$$V2.0)
–	–	–	6170	> 10000	CC[C@H](C)[C@@H]1NC(=O)[C@H](Cc2ccccc2)NC(=O)[C@@H](NC(=O)[C@H](CCCNC(=N)N)NC(=O)CNC(=O)[C@@H](N)CO)CSCC(=O)CSC[C@@H](C(=O)N[C@H](C(=O)N[C@H](C(=O)N[C@@H](Cc2ccccc2)C(=O)N[C@H](C(=O)N[C@@H](CO)C(=O)NCC(=O)NCC(=O)N[C@@H](CO)C(=O)N[C@@H](CCCNC(=N)N)C(=O)N[C@@H](Cc2c[nH]c3ccccc23)C(=O)O)[C@@H](C)O)[C@@H](C)CC)C(C)C)NC(=O)[C@H](CCCNC(=N)N)NC1=O [Analogue 14] (HELM PEPTIDE1{S.G.R.C.F.I.R.C.V.I.F.T.S.G.G.S.R.W}|CHEM1{[O=C(C[*:1])C[*:2]]}$PEPTIDE1,CHEM1,4:R3-1:R1|PEPTIDE1,CHEM1,8:R3-1:R2$$$V2.0)
1000	–	–	1050	–	CC[C@H](C)[C@@H]1NC(=O)[C@H](Cc2ccccc2)NC(=O)[C@@H](NC(=O)[C@H](CCCNC(=N)N)NC(=O)CNC(=O)[C@@H](N)CO)CSCc2cccc(c2)CSC[C@@H](C(=O)N[C@H](C(=O)N[C@H](C(=O)N[C@@H](Cc2ccccc2)C(=O)N[C@H](C(=O)N[C@@H](CO)C(=O)NCC(=O)NCC(=O)N[C@@H](CO)C(=O)N[C@@H](CCCNC(=N)N)C(=O)N[C@@H](Cc2c[nH]c3ccccc23)C(=O)O)[C@@H](C)O)[C@@H](C)CC)C(C)C)NC(=O)[C@H](CCCNC(=N)N)NC1=O [Analogue 16] (HELM PEPTIDE1{S.G.R.C.F.I.R.C.V.I.F.T.S.G.G.S.R.W}|CHEM1{[c1cc(C[*:1])cc(C[*:2])c1]}$PEPTIDE1,CHEM1,4:R3-1:R1|PEPTIDE1,CHEM1,8:R3-1:R2$$$V2.0)
1230	–	–	–	–	RAAPYGVRLSGREFIRAVIFTSGGSRW [H3 B-chain, reference compound]

Further lines, the compound ahead of its results:

Compound	Ki (RXFP3 [1]; SEM) [nM]	EC50 (RXFP3 [2]) [nM]	maximum cAMP accumulation inhibition (RXFP3 [2]; at the highest concentration tested, CHO-K1 cells expressing RXFP3, forskolin-stimulated (Figure 3))	EC50 (RXFP3 [2]; SEM) [nM]	Ki (RXFP3 [1]) [nM]
CC[C@H](C)[C@H](NC(=O)[C@H](Cc1ccccc1)NC(=O)C(C)(C)NC(=O)[C@H](CCCNC(=N)N)NC(=O)CNC(=O)[C@H](CO)NC(C)=O)C(=O)N[C@@H](CCCNC(=N)N)C(=O)NC(C)(C)C(=O)N[C@H](C(=O)N[C@H](C(=O)N[C@@H](Cc1ccccc1)C(=O)N[C@H](C(=O)NC(C)(C)C(=O)NCC(=O)NCC(=O)N[C@@H](CO)C(=O)N[C@@H](CCCNC(=N)N)C(=O)N[C@@H](Cc1c[nH]c2ccccc12)C(=O)O)[C@@H](C)O)[C@@H](C)CC)C(C)C [Analogue 8] (HELM PEPTIDE1{[ac].S.G.R.[Aib].F.I.R.[Aib].V.I.F.T.[Aib].G.G.S.R.W}$$$$V2.0)	955	> 10000	~ 50%	–	–
C=CCCC[C@](C)(NC(=O)[C@H](CCCNC(=N)N)NC(=O)CNC(=O)[C@H](CO)NC(C)=O)C(=O)N[C@@H](Cc1ccccc1)C(=O)N[C@H](C(=O)N[C@@H](CCCNC(=N)N)C(=O)N[C@@](C)(CCCC=C)C(=O)N[C@H](C(=O)N[C@H](C(=O)N[C@@H](Cc1ccccc1)C(=O)N[C@H](C(=O)N[C@@H](CO)C(=O)NCC(=O)NCC(=O)N[C@@H](CO)C(=O)N[C@@H](CCCNC(=N)N)C(=O)N[C@@H](Cc1c[nH]c2ccccc12)C(=O)O)[C@@H](C)O)[C@@H](C)CC)C(C)C)[C@@H](C)CC [Analogue 11] (HELM PEPTIDE1{[ac].S.G.R.[C=CCCC[C@](C)(N[*:1])C(=O)[*:2]].F.I.R.[C=CCCC[C@](C)(N[*:1])C(=O)[*:2]].V.I.F.T.S.G.G.S.R.W}$$$$V2.0)	933	–	–	41.7	–
CC[C@H](C)[C@@H]1NC(=O)[C@H](Cc2ccccc2)NC(=O)[C@@](C)(NC(=O)[C@H](CCCNC(=N)N)NC(=O)CNC(=O)[C@H](CO)NC(C)=O)CCCC=CCCC[C@@](C)(C(=O)N[C@H](C(=O)N[C@H](C(=O)N[C@@H](Cc2ccccc2)C(=O)N[C@H](C(=O)N[C@@H](CO)C(=O)NCC(=O)NCC(=O)N[C@@H](CO)C(=O)N[C@@H](CCCNC(=N)N)C(=O)N[C@@H](Cc2c[nH]c3ccccc23)C(=O)O)[C@@H](C)O)[C@@H](C)CC)C(C)C)NC(=O)[C@H](CCCNC(=N)N)NC1=O [Ac-R3B10-27 [13/17 HC], reference compound] (Ac-SGR[S5]FIR[S5]VIFTSGGSRW-OH; staple 4-8)	41.7	–	–	–	–
CC[C@H](C)[C@H](NC(=O)[C@H](Cc1ccccc1)NC(=O)C(C)(C)NC(=O)[C@H](CCCNC(=N)N)NC(=O)CNC(=O)[C@@H](N)CO)C(=O)N[C@@H](CCCNC(=N)N)C(=O)NC(C)(C)C(=O)NC(C)(C)C(=O)N[C@H](C(=O)N[C@@H](Cc1ccccc1)C(=O)NC(C)(C)C(=O)N[C@@H](CO)C(=O)NCC(=O)NCC(=O)N[C@@H](CO)C(=O)N[C@@H](CCCNC(=N)N)C(=O)N[C@@H](Cc1c[nH]c2ccccc12)C(=O)O)[C@@H](C)CC [Analogue 9] (HELM PEPTIDE1{S.G.R.[Aib].F.I.R.[Aib].[Aib].I.F.[Aib].S.G.G.S.R.W}$$$$V2.0)	2000	–	–	1780	–
CC[C@H](C)[C@H](NC(=O)[C@H](Cc1ccccc1)NC(=O)C(C)(C)NC(=O)[C@H](CCCNC(=N)N)NC(=O)CNC(=O)[C@@H](N)CO)C(=O)N[C@@H](CCCNC(=N)N)C(=O)NC(C)(C)C(=O)NC(C)(C)C(=O)N[C@H](C(=O)N[C@@H](Cc1ccccc1)C(=O)N[C@H](C(=O)N[C@@H](CO)C(=O)NCC(=O)NCC(=O)N[C@@H](CO)C(=O)N[C@@H](CCCNC(=N)N)C(=O)N[C@@H](Cc1c[nH]c2ccccc12)C(=O)O)[C@@H](C)O)[C@@H](C)CC [Analogue 3] (HELM PEPTIDE1{S.G.R.[Aib].F.I.R.[Aib].[Aib].I.F.T.S.G.G.S.R.W}$$$$V2.0)	–	–	–	91.2	–
CC[C@H](C)[C@H](NC(=O)[C@H](Cc1ccccc1)NC(=O)C(C)(C)NC(=O)[C@H](CCCNC(=N)N)NC(=O)CNC(=O)[C@H](CO)NC(C)=O)C(=O)N[C@@H](CCCNC(=N)N)C(=O)NC(C)(C)C(=O)N[C@H](C(=O)N[C@H](C(=O)N[C@@H](Cc1ccccc1)C(=O)N[C@H](C(=O)N[C@@H](CO)C(=O)NCC(=O)NCC(=O)N[C@@H](CO)C(=O)N[C@@H](CCCNC(=N)N)C(=O)N[C@@H](Cc1c[nH]c2ccccc12)C(=O)O)[C@@H](C)O)[C@@H](C)CC)C(C)C [Analogue 1] (HELM PEPTIDE1{[ac].S.G.R.[Aib].F.I.R.[Aib].V.I.F.T.S.G.G.S.R.W}$$$$V2.0)	562	–	–	67.6	–
CC[C@H](C)[C@H](NC(=O)[C@H](Cc1ccccc1)NC(=O)C(C)(C)NC(=O)[C@H](CCCNC(=N)N)NC(=O)CNC(=O)[C@@H](N)CO)C(=O)N[C@@H](CCCNC(=N)N)C(=O)NC(C)(C)C(=O)N[C@H](C(=O)N[C@H](C(=O)N[C@@H](Cc1ccccc1)C(=O)NC(C)(C)C(=O)N[C@@H](CO)C(=O)NCC(=O)NCC(=O)N[C@@H](CO)C(=O)N[C@@H](CCCNC(=N)N)C(=O)N[C@@H](Cc1c[nH]c2ccccc12)C(=O)O)[C@@H](C)CC)C(C)C [Analogue 5] (HELM PEPTIDE1{S.G.R.[Aib].F.I.R.[Aib].V.I.F.[Aib].S.G.G.S.R.W}$$$$V2.0)	–	1020	–	–	–
CC[C@H](C)[C@H](NC(=O)[C@H](Cc1ccccc1)NC(=O)C(C)(C)NC(=O)[C@H](CCCNC(=N)N)NC(=O)CNC(=O)[C@H](CO)NC(C)=O)C(=O)N[C@@H](CCCNC(=N)N)C(=O)NC(C)(C)C(=O)NC(C)(C)C(=O)N[C@H](C(=O)N[C@@H](Cc1ccccc1)C(=O)NC(C)(C)C(=O)N[C@@H](CO)C(=O)NCC(=O)NCC(=O)N[C@@H](CO)C(=O)N[C@@H](CCCNC(=N)N)C(=O)N[C@@H](Cc1c[nH]c2ccccc12)C(=O)O)[C@@H](C)CC [Analogue 10] (HELM PEPTIDE1{[ac].S.G.R.[Aib].F.I.R.[Aib].[Aib].I.F.[Aib].S.G.G.S.R.W}$$$$V2.0)	–	–	–	3240	> 10000
